{"source": "patent US20030166692A1", "about": "“Composition useful as anticancer drug and radiosensitizer” (PHARMGENIA CO., LTD. of Developmental Genetics Laboratory,, priority 2002, published 2003)", "key": {"[1]": {"tested_on": "human A549 lung cancer cell line", "experiment": "Colony formation of A549 cells, compound followed by γ-irradiation", "format": "cell-based", "conditions": "for The survival rate of cancer cells (combination therapy): colony formation vs un-irradiated compound-treated cells", "procedure": "(§1) Using the same method as described in Example 1, human A549 and NCI-H460 lung cancer cell lines (obtained from ATCC) were incubated in RPMI1640 culture medium.\n(§2) Then, cancer cells were collected and placed into 60 mm (in diameter) petri dishes, 300 cells per petri dish. After the cancer cells were incubated in water-containing CO2 incubator at 37° C. for 24 hours, 1 ng/ml and 0.1 ng/ml of the compound of formula I dissolved in DMSO were treated to human NCI-H460 and A549 cells, respectively. Four (4) hours later, the cancer cells were irradiated with a different amount of γ-rays using ^137Cs γ-rays source (Atomic Energy of Canada, Ltd., Canada). After cultivated for 10 days, the colonies were dyed with 1% methylene blue. Colonies having diameters of 200 μm or more were counted using Colony Counter (Imaging Products, Chantilly, Va.).\n(§3) The results regarding colony formation are shown in the following Tables 3 and 4, and FIGS. 3 and 4."}, "[2]": {"tested_on": "NCI-H460 cells transplanted into mice", "experiment": "Tumor volume of NCI-H460 cells transplanted into mice", "format": "in vivo", "procedure": "Six (6) week old mice of BALB/cAnNCrj-nu/nu strain, which were obtained from Chales River Japan Inc. (Japan), were subcutaneously injected lung cancer cells (NCI-H460 cell line, 5×10^6 cells) to develop tumors.\nMice were selected whose tumor volume reached 120 mm^3, and subdivided into 4 groups each having 5 mice: Group 1 (control, treated with DMSO); Group 2 (treated only with 10 mg/kg of the compound of formula I); Group 3 (treated only with 5 Gy of irradiation); and Group 4 (treated with 10 mg/kg of the compound of formula I and 5 Gy of irradiation).\nFive (5) times with 5 day intervals between each time, DMSO or the compound of formula I was subcutaneously injected to the mice of Groups 1, 2 and 4, and γ-rays were irradiated to the mice of Groups 3 and 4.\nThe compound of formula I was dissolved in DMSO to make its concentration 5 mg/ml. 40 μl of DMSO and the compound of formula I each were administered to Groups 1, 2 and 4, respectively. The mice of Group 4 were subcutaneously injected with the compound of formula I, and 4 hours later followed by irradiation. The change of tumor volume in each Group was observed 11 times with 3 to 5 days of interval for 42 days."}, "[3]": {"tested_on": "human SNU638 gastric cancer cell line", "experiment": "MTT survival of SNU638 cancer cells after treatment with the compound of formula I", "format": "cell-based", "conditions": "for The survival rate of cancer cells: MTT, relative to DMSO control", "procedure": "(§4) In this Example, the effect of the compound of formula I as an anticancer agent was evaluated in vitro using human NCI-H460 and SNU638 cancer cell lines.\n(§5) The inventor purchased the compound of formula I from ChemBridge Corporation (San Diego, Calif.). Human NCI-H460 lung cancer cell line was obtained from ATCC (American Type Culture Collection), while human SNU638 gastric cancer cell line from KCLB (Korean Cell Line Bank).\n(§6) Under […] at 37° C., the human NCI-H460 and SNU638 cancer cell lines were incubated for 4 days in RPMI1640 culture medium (GIBCO/BRL, Grand Island, N.Y.) containing 10% calf fetus serum, penicillin 100 units/ml, and streptomycin 100 μg/ml.\nIn the case of the SNU638 cell line, the compound of formula I was dissolved in DMSO in order to make its concentration 1 ng/ml, 10 ng/ml, 100 ng/ml, 1,000 ng/ml and 10,000 ng/ml, respectively. During incubation, the SNU638 cells were treated with each concentration of the compound of formula I, respectively.\n(§7) Then, any surviving cancer cells were dyed with MTT [3-(4,5-dimethylthiazol-2-yl)-2,5-diphenyltetrazolium bromide] and quantified at 540 nm with a microplate reader.\n(§8) Following Tables 1 and 2, and FIGS. 1 and 2, respectively show the survival rate of cancer cells, based on relative absorbance rate in reference to control (i.e. cancer cells treated with DMSO only). […] When treated with 1,000 ng/ml of the compound of formula I, about 80% (in the case of the NCI-H460 cell line) and 94% (in the case of the SNU638 cell line) of cancer cells were killed."}, "[4]": {"tested_on": "human NCI-H460 lung cancer cell line", "experiment": "MTT survival of NCI-H460 cancer cells after treatment with the compound of formula I", "format": "cell-based", "conditions": "for The survival rate of cancer cells: MTT, relative to DMSO control", "procedure": "as §4, §5, §6\nIn the case of the NCI-H460 cell line, the compound of formula I was dissolved in DMSO (dimethyl sulfoxide) in order to make its concentration 0.1 ng/ml, 1 ng/ml, 10 ng/ml, 100 ng/ml, 1,000 ng/ml and 10,000 ng/ml, respectively. During incubation, the NCI-H460 cells were treated with each concentration of the compound of formula I, respectively.\nas §7, §8"}, "[5]": {"tested_on": "human NCI-H460 lung cancer cell line", "experiment": "Colony formation of NCI-H460 cells, compound followed by γ-irradiation", "format": "cell-based", "conditions": "for The survival rate of cancer cells (combination therapy): colony formation vs un-irradiated compound-treated cells", "procedure": "as §1, §2, §3"}}}
{"compound": "CSC(=S)N/N=C(\\c1ccccc1)c1ccccn1", "note": "[compound of formula I, N′-(phenyl-pyridin-2-yl-methylene)-hydrazine carbodithioic acid methyl ester]", "values": [{"measurement": "The survival rate of cancer cells (combination therapy)", "setting": "[1]; 0.1 ng/ml compound then 1 Gy", "value": 53, "unit": "%"}, {"measurement": "The survival rate of cancer cells (combination therapy)", "setting": "[1]; 0.1 ng/ml compound then 3 Gy", "value": 10, "unit": "%"}, {"measurement": "The survival rate of cancer cells (combination therapy)", "setting": "[1]; 0.1 ng/ml compound then 5 Gy", "value": 2, "unit": "%"}, {"measurement": "The survival rate of cancer cells (combination therapy)", "setting": "[1]; 0.1 ng/ml compound then 7 Gy", "value": 1, "unit": "%"}, {"measurement": "cancer cells killed", "setting": "[1]; 0.1 ng/ml followed by 1 Gy, in comparison with 0.1 ng/ml and no irradiation", "value": 47, "unit": "%"}, {"measurement": "increased anticancer effect in comparison with 1 Gy of irradiation only", "setting": "[1]; 0.1 ng/ml in combination with 1 Gy", "value": 32, "unit": "%"}, {"measurement": "radio-enhanced cancer treatment effect", "setting": "[1]; 1 Gy or more irradiated, 0.1 ng/ml", "value": "significantly effective"}, {"measurement": "tumor volume", "setting": "[2]; Combination: 10 mg/kg s.c. + 5 Gy irradiation, 10 days", "value": 133, "unit": "mm^3"}, {"measurement": "tumor volume", "setting": "[2]; Combination: 10 mg/kg s.c. + 5 Gy irradiation, 13 days", "value": 268, "unit": "mm^3"}, {"measurement": "tumor volume", "setting": "[2]; Combination: 10 mg/kg s.c. + 5 Gy irradiation, 18 days", "value": 379, "unit": "mm^3"}, {"measurement": "tumor volume", "setting": "[2]; Combination: 10 mg/kg s.c. + 5 Gy irradiation, 21 days", "value": 539, "unit": "mm^3"}, {"measurement": "tumor volume", "setting": "[2]; Combination: 10 mg/kg s.c. + 5 Gy irradiation, 24 days", "value": 710, "unit": "mm^3"}, {"measurement": "tumor volume", "setting": "[2]; Combination: 10 mg/kg s.c. + 5 Gy irradiation, 26 days", "value": 760, "unit": "mm^3"}, {"measurement": "tumor volume", "setting": "[2]; Combination: 10 mg/kg s.c. + 5 Gy irradiation, 29 days", "value": 862, "unit": "mm^3"}, {"measurement": "tumor volume", "setting": "[2]; Combination: 10 mg/kg s.c. + 5 Gy irradiation, 33 days", "value": 950, "unit": "mm^3"}, {"measurement": "tumor volume", "setting": "[2]; Combination: 10 mg/kg s.c. + 5 Gy irradiation, 36 days", "value": "1,086 mm^3"}, {"measurement": "tumor volume", "setting": "[2]; Combination: 10 mg/kg s.c. + 5 Gy irradiation, 39 days", "value": "1,079 mm^3"}, {"measurement": "tumor volume", "setting": "[2]; Combination: 10 mg/kg s.c. + 5 Gy irradiation, 42 days", "value": "1,164 mm^3"}, {"measurement": "increase rate of the tumor volume", "setting": "[2]; Group 2 (compound only, 10 mg/kg) vs Group 1 (control)", "value": "much lower than in Group 1"}, {"measurement": "increase in tumor volume", "setting": "[2]; Group 4 (compound + 5 Gy irradiation) compared to Group 3 (irradiation only)", "value": "little increase in tumor volume"}, {"measurement": "tumor volume", "setting": "[2]; compound only, 10 mg/kg s.c., 10 days", "value": 179, "unit": "mm^3"}, {"measurement": "tumor volume", "setting": "[2]; compound only, 10 mg/kg s.c., 13 days", "value": 258, "unit": "mm^3"}, {"measurement": "tumor volume", "setting": "[2]; compound only, 10 mg/kg s.c., 18 days", "value": 614, "unit": "mm^3"}, {"measurement": "tumor volume", "setting": "[2]; compound only, 10 mg/kg s.c., 21 days", "value": 923, "unit": "mm^3"}, {"measurement": "tumor volume", "setting": "[2]; compound only, 10 mg/kg s.c., 24 days", "value": "1,274 mm^3"}, {"measurement": "tumor volume", "setting": "[2]; compound only, 10 mg/kg s.c., 26 days", "value": "1,766 mm^3"}, {"measurement": "tumor volume", "setting": "[2]; compound only, 10 mg/kg s.c., 29 days", "value": "2,211 mm^3"}, {"measurement": "tumor volume", "setting": "[2]; compound only, 10 mg/kg s.c., 33 days", "value": "2,759 mm^3"}, {"measurement": "tumor volume", "setting": "[2]; compound only, 10 mg/kg s.c., 36 days", "value": "3,374 mm^3"}, {"measurement": "tumor volume", "setting": "[2]; compound only, 10 mg/kg s.c., 39 days", "value": "3,787 mm^3"}, {"measurement": "tumor volume", "setting": "[2]; compound only, 10 mg/kg s.c., 42 days", "value": "4,133 mm^3"}, {"measurement": "cancer cells killed", "setting": "[3]; 1 ng/ml", "value": "~35", "unit": "%"}, {"measurement": "The survival rate of cancer cells", "setting": "[3]; 1 ng/ml", "value": 64.46, "unit": "%"}, {"measurement": "The survival rate of cancer cells", "setting": "[3]; 10 ng/ml", "value": 53.22, "unit": "%"}, {"measurement": "The survival rate of cancer cells", "setting": "[3]; 100 ng/ml", "value": 46.41, "unit": "%"}, {"measurement": "cancer cells killed", "setting": "[3]; 1,000 ng/ml", "value": "~94", "unit": "%"}, {"measurement": "The survival rate of cancer cells", "setting": "[3]; 1,000 ng/ml", "value": 5.71, "unit": "%"}, {"measurement": "The survival rate of cancer cells", "setting": "[3]; 10,000 ng/ml", "value": 3.87, "unit": "%"}, {"measurement": "The survival rate of cancer cells", "setting": "[4]; 0.1 ng/ml", "value": 90.2, "unit": "%"}, {"measurement": "cancer cells killed", "setting": "[4]; 1 ng/ml", "value": "about 12%"}, {"measurement": "The survival rate of cancer cells", "setting": "[4]; 1 ng/ml", "value": 87.7, "unit": "%"}, {"measurement": "The survival rate of cancer cells", "setting": "[4]; 10 ng/ml", "value": 51.3, "unit": "%"}, {"measurement": "The survival rate of cancer cells", "setting": "[4]; 100 ng/ml", "value": 36.6, "unit": "%"}, {"measurement": "cancer cells killed", "setting": "[4]; 1,000 ng/ml", "value": "about 80%"}, {"measurement": "The survival rate of cancer cells", "setting": "[4]; 1,000 ng/ml", "value": 20, "unit": "%"}, {"measurement": "The survival rate of cancer cells", "setting": "[4]; 10,000 ng/ml", "value": 2, "unit": "%"}, {"measurement": "The survival rate of cancer cells (combination therapy)", "setting": "[5]; 1 ng/ml compound then 1 Gy", "value": 37.5, "unit": "%"}, {"measurement": "The survival rate of cancer cells (combination therapy)", "setting": "[5]; 1 ng/ml compound then 3 Gy", "value": 9, "unit": "%"}, {"measurement": "The survival rate of cancer cells (combination therapy)", "setting": "[5]; 1 ng/ml compound then 5 Gy", "value": 1, "unit": "%"}, {"measurement": "The survival rate of cancer cells (combination therapy)", "setting": "[5]; 1 ng/ml compound then 7 Gy", "value": 0.01, "unit": "%"}, {"measurement": "cancer cells killed", "setting": "[5]; 1 ng/ml followed by 1 Gy, in comparison with 1 ng/ml and no irradiation", "value": 62.5, "unit": "%"}, {"measurement": "enhanced anticancer effect in comparison with 1 Gy of irradiation", "setting": "[5]; 1 ng/ml in combination with 1 Gy", "value": 27.5, "unit": "%"}, {"measurement": "radio-enhanced cancer treatment effect", "setting": "[5]; 1 Gy or more irradiated, 1 ng/ml", "value": "significantly effective"}]}
